According to US11760754B2, “Heterocyclic mitochondrial activity inhibitors and uses thereof” (UNIVERSITÉ DE MONTRÉAL, priority 2017, dated 2023):
Read-outs that look alike come from different tables or passages of the source.

Assays:
[1] = tested on: OCI-AML3 cells; assay: OCI-AML3 cell growth inhibition, dose-response viability assay (CellTiterGlo); assay type: cell-based; details: Homo sapiens, OCI-AML-3, 144 h, read-out: AML-3 EC50
Experimental: Cell dose-response viability assays. […] In the initial screen, compounds were added to seeded cells in serial dilutions (10 dilutions, 1:3, starting from […] 20 μM), in duplicates.
(§1) The potency of the compounds of Example 6 at inhibiting OCI-AML3 cell growth was tested using a procedure similar to that described for Mutritinib in Example 1. […] Murine MLL-AF9 leukemia cells (female cells) were generated by infection with VSV-G-pseudotyped MSCV MLL-AF9 IRES Puro (subcloned from a construct by Frédéric Barabé, Laval U, Quebec, QC, Canada).
(§2) Compounds were added to seeded cells in serial dilutions from 10 μM to 0.5 nM, in duplicates or quadruplicates.

[2] = tested on: MLL-AF9 cells; assay: MLL-AF9 leukemia cell growth inhibition, dose-response viability assay (CellTiterGlo); assay type: cell-based, murine; details: Mus musculus, read-out: MLL-AF9 EC50
Experimental: as §1, §2

| Structure (SMILES) | EC50 [1] [nM] | EC50 ([2]; MLL-AF9, 120 h) [nM] | EC50 ([1]; OCI-AML3 cells, 6 days of culture, CellTiterGlo) [nM] | EC50 ([2]; 120 h, MLL-AF9 cells, 5 days of culture, CellTiterGlo) [nM] |
| --- | --- | --- | --- | --- |
| OC(CCCn1ccnn1)c1ccc(OCc2coc(/C=C/c3ccc(C(F)(F)F)cc3F)n2)cc1 (centres unmarked) [Compound 23, (E)-1-(4-((2-(2-fluoro-4-(trifluoromethyl)styryl)oxazol-4-yl)methoxy)phenyl)-4-(1H-1,2,3-triazol-1-yl)butan-1-ol] | 100 to 500 | 50 to 100 |  |  |
| O=C(CCCn1ccnn1)c1ccc(OCc2coc(/C=C/c3ccc([N+](=O)[O-])cc3F)n2)cc1 [Compound 24, (E)-1-(4-((2-(2-fluoro-4-nitrostyryl)oxazol-4-yl)methoxy)phenyl)-4-(1H-1,2,3-triazol-1-yl)butan-1-one] | 1000 to 10000 | 500 to 1000 |  |  |
| O=[N+]([O-])c1ccc(/C=C/c2nc(COc3ccc(C(O)CCCn4ccnn4)cc3)co2)c(F)c1 (centres unmarked) [Compound 25, (E)-1-(4-((2-(2-fluoro-4-nitrostyryl)oxazol-4-yl)methoxy)phenyl)-4-(1H-1,2,3-triazol-1-yl)butan-1-ol] | 1000 to 10000 | 500 to 1000 |  |  |
| FC(F)(F)c1ccc(/C=C/c2nc(CNc3ccc(CCCCn4ccnn4)cc3)co2)cc1 [Compound 26, (E)-4-(4-(1H-1,2,3-triazol-1-yl)butyl)-N-((2-(4-(trifluoromethyl)styryl)oxazol-4-yl)methyl)aniline] | 1000 to 10000 | 100 to 500 |  |  |
| Fc1cc(Br)ccc1/C=C/c1nc(CNc2ccc(CCCCn3ccnn3)cc2)co1 [Compound 27, (E)-4-(4-(1H-1,2,3-triazol-1-yl)butyl)-N-((2-(4-bromo-2-fluorostyryl)oxazol-4-yl)methyl)aniline] | 500 to 1000 | 50 to 100 |  |  |
| FC(F)(F)c1ccc(-c2nc(COc3ccc(CCCCn4ccnn4)cc3)co2)cc1 [Compound 28, 4-((4-(4-(1H-1,2,3-triazol-1-yl)butyl)phenoxy)methyl)-2-(4-(trifluoromethyl)phenyl)oxazole] |  |  | 1000 to 10000 | 100 to 500 |
| O=C(Nc1ccc(CCCCO)cc1)c1coc(/C=C/c2ccc(C(F)(F)F)cc2)n1 [Compound 29, (E)-N-(4-(4-hydroxybutyl)phenyl)-2-(4-(trifluoromethyl)styryl)oxazole-4-carboxamide] | 1000 to 10000 | 100 to 500 |  |  |
| O=C(Nc1ccc(CCCCn2ccnn2)cc1)c1coc(/C=C/c2ccc(C(F)(F)F)cc2)n1 [Compound 30, (E)-N-(4-(4-(1H-1,2,3-triazol-1-yl)butyl)phenyl)-2-(4-(trifluoromethyl)styryl)oxazole-4-carboxamide] | 500 to 1000 | 100 to 500 |  |  |
| CN(C)c1cccc2c(S(=O)(=O)NCCc3cn(CCCCc4ccc(OCc5coc(/C=C/c6ccc(C(F)(F)F)cc6)n5)cc4)nn3)cccc12 [Compound 31, (E)-5-(dimethylamino)-N-(2-(1-(4-(4-((2-(4-(trifluoromethyl)styryl)oxazol-4-yl)methoxy)phenyl)butyl)-1H-1,2,3-triazol-4-yl)ethyl)naphthalene-1-sulfonamide] | 1000 to 10000 | 500 to 1000 |  |  |
| COc1ccc(/C=C/c2nc(COc3ccc(CCCCn4ccnn4)cc3)co2)cc1 [Compound 32, (E)-4-((4-(4-(1H-1,2,3-triazol-1-yl)butyl)phenoxy)methyl)-2-(4-methoxystyryl)oxazole] | 100 to 500 | 100 to 500 |  |  |
| Brc1ccc(/C=C/c2nc(COc3ccc(CCCCn4ccnn4)cc3)co2)cc1 [Compound 33, (E)-4-((4-(4-(1H-1,2,3-triazol-1-yl)butyl)phenoxy)methyl)-2-(4-bromostyryl)oxazole] | 100 to 500 | 100 to 500 |  |  |
| CCN(CC)C(=O)OCCCCc1ccc(OCc2coc(/C=C/c3ccc(C(F)(F)F)cc3)n2)cc1 [Compound 34, (E)-4-(4-((2-(4-(trifluoromethyl)styryl)oxazol-4-yl)methoxy)phenyl)butyl diethylcarbamate] | 1000 to 10000 | 1000 to 10000 |  |  |
| O=C(OCCCCc1ccc(OCc2coc(/C=C/c3ccc(C(F)(F)F)cc3)n2)cc1)N1CCOCC1 [Compound 35, (E)-4-(4-((2-(4-(trifluoromethyl)styryl)oxazol-4-yl)methoxy)phenyl)butyl morpholine-4-carboxylate] | 1000 to 10000 | 500 to 1000 |  |  |
| CN(C)C(=O)OCCCCc1ccc(OCc2coc(/C=C/c3ccc(C(F)(F)F)cc3)n2)cc1 [Compound 36, (E)-4-(4-((2-(4-(trifluoromethyl)styryl)oxazol-4-yl)methoxy)phenyl)butyl dimethylcarbamate] | 1000 to 10000 | 1000 to 10000 |  |  |
| N#Cc1ccc(/C=C/c2nc(COc3ccc(CCCCn4ccnn4)cc3)co2)cc1 [Compound 37, (E)-4-(2-(4-((4-(4-(1H-1,2,3-triazol-1-yl)butyl)phenoxy)methyl)oxazol-2-yl)vinyl)benzonitrile] | 100 to 500 | 100 to 500 |  |  |
| Clc1ccc(/C=C/c2nc(COc3ccc(CCCCn4ccnn4)cc3)co2)cc1 [Compound 38, (E)-4-((4-(4-(1H-1,2,3-triazol-1-yl)butyl)phenoxy)methyl)-2-(4-chlorostyryl)oxazole] | 50 to 100 | 100 to 500 |  |  |

| Structure (SMILES) | EC50 [1] [nM] | EC50 ([2]; MLL-AF9, 120 h) [nM] | EC50 ([1]; OCI-AML3 cells, 6 days of culture, CellTiterGlo) [nM] | EC50 ([2]; 120 h, MLL-AF9 cells, 5 days of culture, CellTiterGlo) [nM] |
| --- | --- | --- | --- | --- |
| Fc1ccc(/C=C/c2nc(COc3ccc(CCCCn4ccnn4)cc3)co2)cc1 [Compound 39, (E)-4-((4-(4-(1H-1,2,3-triazol-1-yl)butyl)phenoxy)methyl)-2-(4-fluorostyryl)oxazole] | 100 to 500 | 100 to 500 |  |  |
| O=[N+]([O-])c1ccc(/C=C/c2nc(COc3ccc(CCCCn4ccnn4)cc3)co2)cc1 [Compound 40, (E)-4-((4-(4-(1H-1,2,3-triazol-1-yl)butyl)phenoxy)methyl)-2-(4-nitrostyryl)oxazole] | 50 to 100 | 100 to 500 |  |  |
| Fc1ccccc1/C=C/c1nc(COc2ccc(CCCCn3ccnn3)cc2)co1 [Compound 41, (E)-4-((4-(4-(1H-1,2,3-triazol-1-yl)butyl)phenoxy)methyl)-2-(2-fluorostyryl)oxazole] | 100 to 500 | 100 to 500 |  |  |
| O=[N+]([O-])c1ccccc1/C=C/c1nc(COc2ccc(CCCCn3ccnn3)cc2)co1 [Compound 42, (E)-4-((4-(4-(1H-1,2,3-triazol-1-yl)butyl)phenoxy)methyl)-2-(2-nitrostyryl)oxazole] | 500 to 1000 | 100 to 500 |  |  |
| O=[N+]([O-])c1cccc(/C=C/c2nc(COc3ccc(CCCCn4ccnn4)cc3)co2)c1 [Compound 43, (E)-4-((4-(4-(1H-1,2,3-triazol-1-yl)butyl)phenoxy)methyl)-2-(3-nitrostyryl)oxazole] | 1000 to 10000 | 1000 to 10000 |  |  |
| FC(F)(F)c1ccccc1/C=C/c1nc(COc2ccc(CCCCn3ccnn3)cc2)co1 [Compound 44, (E)-4-((4-(4-(1H-1,2,3-triazol-1-YI)butyl)phenoxy)methyl)-2-(2-(trifluoromethyl)styryl)oxazole] | 1000 to 10000 | > 10000 |  |  |
| Fc1ccc(/C=C/c2nc(COc3ccc(CCCCn4ccnn4)cc3)co2)c(F)c1 [Compound 45, (E)-4-((4-(4-(1H-1,2,3-triazol-1-yl)butyl)phenoxy)methyl)-2-(2,4-difluorostyryl)oxazole] | 50 to 100 | 100 to 500 |  |  |
| Fc1cccc(F)c1/C=C/c1nc(COc2ccc(CCCCn3ccnn3)cc2)co1 [Compound 46, (E)-4-((4-(4-(1H-1,2,3-triazol-1-yl)butyl)phenoxy)methyl)-2-(2,6-difluorostyryl)oxazole] | 500 to 1000 | 1000 to 10000 |  |  |
| C(=C\c1nc(COc2ccc(CCCCn3ccnn3)cc2)co1)/c1ccccc1 [Compound 47, (E)-4-((4-(4-(1H-1,2,3-triazol-1-yl)butyl)phenoxy)methyl)-2-styryloxazole] | 100 to 500 | 100 to 500 |  |  |
| Fc1cc(C(F)(F)F)ccc1/C=C/c1nc(COc2ccc(CCCCn3ccnn3)cc2)co1 [Compound 48, (E)-4-((4-(4-(1H-1,2,3-triazol-1-yl)butyl)phenoxy)methyl)-2-(2-fluoro-4-(trifluoromethyl)styryl)oxazole] | 50 to 100 | < 50 |  |  |
| FC(F)(F)c1cccc(/C=C/c2nc(COc3ccc(CCCCn4ccnn4)cc3)co2)c1 [Compound 49, (E)-4-((4-(4-(1H-1,2,3-triazol-1-yl)butyl)phenoxy)methyl)-2-(3-(trifluoromethyl)styryl)oxazole] | 1000 to 10000 | 1000 to 10000 |  |  |
| FC(F)(F)c1ccc(/C=C/c2nc(COc3ccc(CCCn4ccnn4)cc3)co2)cc1 [Compound 50, (E)-4-((4-(3-(1H-1,2,3-triazol-1-yl)propyl)phenoxy)methyl)-2-(4-(trifluoromethyl)styryl)oxazole] | 1000 to 10000 | 100 to 500 |  |  |
| OCCc1nccn1CCCCc1ccc(OCc2coc(/C=C/c3ccc(C(F)(F)F)cc3)n2)cc1 [Compound 51, (E)-2-(1-(4-(4-((2-(4-(trifluoromethyl)styryl)oxazol-4-yl)methoxy)phenyl)butyl)-1H-imidazol-2-yl)ethanol] | 1000 to 10000 | 500 to 1000 |  |  |
| NCCc1nccn1CCCCc1ccc(OCc2coc(/C=C/c3ccc(C(F)(F)F)cc3)n2)cc1 [Compound 52, (E)-2-(1-(4-(4-((2-(4-(trifluoromethyl)styryl)oxazol-4-yl)methoxy)phenyl)butyl)-1H-imidazol-2-yl)ethanamine] | 1000 to 10000 | 1000 to 10000 |  |  |
| CN(C)C(=O)OCCc1nccn1CCCCc1ccc(OCc2coc(/C=C/c3ccc(C(F)(F)F)cc3)n2)cc1 [Compound 53, (E)-2-(1-(4-(4-((2-(4-(trifluoromethyl)styryl)oxazol-4-yl)methoxy)phenyl)butyl)-1H-imidazol-2-yl)ethyl dimethylcarbamate] | 100 to 500 | 50 to 100 |  |  |
